# In patent US20090305994A1, “Compounds Modulating Vegf Receptor and Uses Thereof” (priority 2005, published 2009):
# What was measured:
# [1] = tested on: RB; assay: RB phosphorylation (western blot); assay type: cell-based, bovine; settings: 12 and 18 hours; QK 10^-6 M, VEGF165 100 ng/ml, VEGF 15 10^-6 M
# Method: (§1) Effect of QK on cell proliferation. a) DNA synthesis. BAEC were incubated in DMEM with [^3H]-thymidine and QK in absence or in presence of VEGF165 (100 ng/ml). After 24 hours cells were fixed and lysed. Scintillation liquid was added and [^3H]-thymidine incorporation was evaluated. b) Cell proliferation. BAEC were stimulated with the indicated amount of QK in absence or in presence of VEGF165 (100 ng/ml). Cell number was determined at 24 hours after stimulation. c) RB phosphorylation. p-RB was evaluated at 12 and 18 hours after stimulation with QK (10^-6M), VEGF165 (100 ng/ml) and VEGF 15 (10^−6 M).
# (§2) Cells proliferation assay. Cells were seeded at a density of 10000 per well in six well plates, serum starved overnight and then stimulated with QK (10-12 to 10^−6 M) in absence or in presence of VEGF165. Cell number was determined at 24 hours after stimulation. The p-RB, was evaluated by western blot 12 and 18 hours after stimulation with QK (10^−6 M), VEGF165 and VEGF 15 (10^−6 M).
# [2] = tested on: Human endothelial cells; assay: Angiogenesis in vitro assay (Angiokit, tubule formation, CD31 staining); assay type: cell-based; settings: eleventh day
# Method: In vitro angiogenic properties of QK. Human endothelial cells were co-cultured with other human cells in a specially designed medium in a 24 well plate. Every three days, QK alone or a combination of QK and VEGF165 (100 ng/ml) was added to the cultures. On the eleventh day, cells were fixed with ice cold 70% ethanol and tubule formation was visualized by staining for anti-human CD31 (PECAM-1).
# Angiogenesis in vitro assay. Human endothelial cells were co-cultured with other human cells in a specially designed medium (Angiokit, TCS CellWorks), in a 24 well plates. Every three days, QK in absence or in presence of VEGF165 was added to the cultures. VEGF and suramine (20 μM) were used as positive and negative controls respectively. […] On the eleventh day, cells were fixed with ice cold 70% ethanol and tubule formation was visualized by staining for anti-human CD31 (PECAM-1). Results were scored with the image analysis software, Angiosys software (TCS CellWorks).
# In vitro angiogenesis assay. […] Tubule formation was evaluated by positive staining for CD31/PECAM-1, an intercellular adhesion molecule involved in leucocytes diapedesis. We determined the number of cell junctions corrected by the total tubules length.
# [3] = tested on: BAEC; assay: Cells proliferation assay (cell number); assay type: cell-based, bovine; settings: 24 hours
# Method: as §1, §2
# [4] = tested on: ERK1/2; assay: ERK1/2 activation in BAEC (western blot); assay type: cell-based, bovine
# Method: Effect of QK and VEGF15 on ERK1/2 activation. Serum deprived BAEC were treated with QK (a) or with VEGF 15 (b) in absence or in presence of VEGF165 (100 ng/ml) for 15 minutes at 37° C. and then dissolved in RIPA-SDS buffer. Total ERK1/2 and the phosphorylated form of ERK1/2 were visualized by specific antibodies.
# Western blot. Cells were plated on six-well dishes and serum starved overnight. On the next day, cells were treated with different amount of peptide in absence or in presence of VEGF165 for 15 minutes at 37° C. and then dissolved in RIPA-SDS buffer (50 mM Tris-HCl (pH 7.5), 150 mM NaCl, 1% NP-40, 0.25% deoxycholate, 9.4 mg/50 ml sodium orthovanadate, […]). In some experiments, total KDR and Flt-1 were immunoprecipitated from an equal amount of whole-cell protein extracts using protein A/G agarose beads conjugated with antibodies raised against total KDR or Flt-1 (R&D). Proteins from whole-cell extracts or immunocomplexes were resolved by PAGE and transferred to nitrocellulose. Total extracellular signal-regulated kinase 1 and 2 (ERK1/2), serine-tyrosin phosphorylated ERK1/2, phospho-tyrosine (Cell signaling) and phospho-RB (p-RB) (Santacruz) were visualized by specific antibodies, anti-rabbit HRP-conjugated secondary antibody (Santacruz) and standard chemiluminescence (Pierce).
# Activation of the proliferative intracellular pathways. We then explored whether QK is able to start the pathways of endothelial cell activation. It is well established that angiogenesis modulate by VEGF is largely ERK1/2 dependent, leading to DNA synthesis and cell proliferation (7). Accordingly, we assessed the effects of QK on this kinase. […] To verify whether ERK1/2 activation to QK results in cell proliferation, we studied cell proliferation indicators such as cell number, DNA synthesis and cyclin activation.
# [5] = tested on: WKY rats; assay: Implanted Matrigel model in rats; assay type: in vivo, rat; settings: subcutaneous plug, one week
# Method: Implanted Matrigel Model in rats. Each animals was subcutaneously injected with 1 mL Matrigel Matrix High (18-22 mg/mL; Becton Dickinson, Franklin Lakes, N.J.) containing QK, VEGF 15, VEGF 165 (10^-6 M) or saline solution on the back. One week later, Matrigel plugs were removed and fixed in 4% buffered formaldehyde in PBS for histologic analysis using Masson trichrome staining. The capillary-occupied area per field of view from 15 to 20 fields in tissue sections was measured using a computerized digital camera system (Olympus, Melville, N.Y.) and NIH Image 1.61 (NIH, Bethesda, Md.).
# We evaluated the proangiogenic effects of QK in vivo using a subcutaneous injection of Matrigel Matrix High (BD Technologies) […] (VEGF 15 10^-7 M), in anesthetized twelve-week-old WKY rats. After one week the plugs were removed and analyzed in gross morphology and capillaries infiltration by CD31/vWF immunostaining. […] After 14 days animals were anesthetized and hindlimbs blood flow (BF) assessed by digital angiographies counting the TIMI Frame score (TFC) needs to the contrast to arrive at the artery dorsal paw (FIG. 5a). BF was also evaluated by dyed beads dilution through injection in abdominal aorta of yellow beads ([…]) (FIG. 5b). By histology on the ischemic and non ischemic anterior tibial muscle, we evaluated capillary density.
sequence,measurement,setting,value
KLTWQELYQLKYKGI [QK],phosphorylation of the cyclin RB,[1],enhanced phosphorylation of the cyclin RB
same,formation of new connections,[2]; peptide alone,induced the formation of new connections in a dose dependent manner
same,formation of new connections in presence of VEGF165,[2]; with VEGF165 100 ng/ml,enhanced the response to VEGF165
same,cell proliferation (cell number),[3]; peptide alone,produces cell proliferation per se
same,cell proliferation in presence of VEGF,[3]; with VEGF165 100 ng/ml,enhances VEGF response
same,ERK1/2 activation in presence of VEGF,"[4]; BAEC, with VEGF165 100 ng/ml, 15 minutes",additive to VEGF
same,ERK1/2 activation,"[4]; serum deprived BAEC, 15 minutes at 37° C.",leaded to ERK1/2 activation in a dose dependent fashion
same,Matrigel plug gross morphology (macroscopic inspection),[5],contained blood
same,peripheral capillaries infiltration of Matrigel plugs,[5]; versus VEGF 15 plugs,greater peripheral capillaries infiltration
